As usually defined, the pIC50 is the IC50 on a negative log10 scale, so that one unit is a factor of ten. High values mean a low IC50, low ones a high IC50.

Experimental findings from ChEMBL document CHEMBL5543169, “Exploring Subsite Selectivity within Plasmodium vivax N-Myristoyltransferase Using Pyrazole-Derived Inhibitors” (J Med Chem, 2024) are described below.

pIC50: −log10 of the molar value.

The nature of assay [1]: Inhibition of Plasmodium vivax NMT.
Assay [2] in a line: Inhibition of N-terminal 6His-tagged Plasmodium vivax NMT (27 to 410 residues) expressed in Escherichia coli Rosetta 2 (DE3) cells preincubated for 30 mins followed by myrCoA, PfARF and CPM addition by fluorescence based plate reader assay.

`O=C(c1cccc(NCc2cc(-c3ccc(Cl)cc3)c[nH]c2=O)c1)N1CCOCC1` showed a pIC50 in assay [1] of 5.47. As to `Cc1c(CCOc2ccc3ccccc3c2-c2ccnc(N3CCNCC3)c2)c(C(=O)NCC(N)=O)nn1C`, the pIC50 in assay [2] was 5.29. Turning to `Cc1nn(C)c(C)c1CCOc1cccnc1-c1cccc(N2CCNCC2)c1`, the pIC50 in assay [2] was 7.10. Same read-out and setting: in the case of `Cc1c(CCOc2ccc3ccccc3c2-c2ccnc(N3CCNCC3)c2)c(C(=O)Nc2cccnc2)nn1C` it was 6.00.
